Legend:
[1] = molecular target: T1, human recombinant DPP-IV (Homo sapiens, UniProt P27487); test: DPP-IV inhibitor screening assay kit (Cayman), fluorogenic substrate Gly-Pro-AMC; type: biochemical; details: mean ± SD of three independent experiments
T1 construct: purchased Cayman Chemical
Method: To the best of our knowledge, no prior studies examined the in vitro DPP-IV-inhibitory effects of 1–3, although the protein-ligand complex for 3 was examined via molecular docking analysis, using Discovery Studio 3.0 and Meta-Pocket (http://projects.biotec.tu-dresden.de/metapocket/).
DPP-IV activity was analyzed using a DPP-IV inhibitor screening assay kit (Cayman Chemical, Ann Arbor, MI, USA), which provided a fluorescence-based method for screening DPP-IV inhibitors. The assay used the fluorogenic substrate, Gly-Pro-Aminomethylcoumarine (AMC), to measure DPP-IV activity. Cleavage of the peptide bond by DPP released the free AMC group, resulting in fluorescence that could be analyzed using an excitation wavelength of 350–360 nm and an emission wavelength of 450–465 nm.
The tested compounds were initially dissolved in DMSO to produce 50 mM stock solution, and subsequently diluted to the required concentrations using DMSO, and then they were added to a 96-well plate in final volume of 10 μL and a final concentration of 50 μM. The assay procedure is described briefly according to the manufacturer’s protocols as follows: Diluted assay buffer (30 μL) and diluted enzyme solution (10 μL) were added to the 96-well plate containing 10 μL of solvent (blank) or solvent-dissolved test compounds. The reaction was initiated by adding 50 μL of a diluted substrate solution, and the plate was incubated for 30 min at 37 °C. After incubation, fluorescence with an excitation wavelength of 350 nm and an emission wavelength of 450 nm was monitored using a plate reader (TECAN, Männedorf, Switzerland). The percent inhibition was expressed as ([DPP-IV level of vehicle–treated control–DPP-IV level of test samples]/DPP-IV level of vehicle-treated control) × 100.

[2] = test system: DPP-IV; details: DPP-IV Glo Protease Assay kit (Promega); cited from earlier work
[3] = test system: DPP-IV; set-up: method as in PMID 22410395; details: cited from earlier work

T1 sequence (P27487 whole entry): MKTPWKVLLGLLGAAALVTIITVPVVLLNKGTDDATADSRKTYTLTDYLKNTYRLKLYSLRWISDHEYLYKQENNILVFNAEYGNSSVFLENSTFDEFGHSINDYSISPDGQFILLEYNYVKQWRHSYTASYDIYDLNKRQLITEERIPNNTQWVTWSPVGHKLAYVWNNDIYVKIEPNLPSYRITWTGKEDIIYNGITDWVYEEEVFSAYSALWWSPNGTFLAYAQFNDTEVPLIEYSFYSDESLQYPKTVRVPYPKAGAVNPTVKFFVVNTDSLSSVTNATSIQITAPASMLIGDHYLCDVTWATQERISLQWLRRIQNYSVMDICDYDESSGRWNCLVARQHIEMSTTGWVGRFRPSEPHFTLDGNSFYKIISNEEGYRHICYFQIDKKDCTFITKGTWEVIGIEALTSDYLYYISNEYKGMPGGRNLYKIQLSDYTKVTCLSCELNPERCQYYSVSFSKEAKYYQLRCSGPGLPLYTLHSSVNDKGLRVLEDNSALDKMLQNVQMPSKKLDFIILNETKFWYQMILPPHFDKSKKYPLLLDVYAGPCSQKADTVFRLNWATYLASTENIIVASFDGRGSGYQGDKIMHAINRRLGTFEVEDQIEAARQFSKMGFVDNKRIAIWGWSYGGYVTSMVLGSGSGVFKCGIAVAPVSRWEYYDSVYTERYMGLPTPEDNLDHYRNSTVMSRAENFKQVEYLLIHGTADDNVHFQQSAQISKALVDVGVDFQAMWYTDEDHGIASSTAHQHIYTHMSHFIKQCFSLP

IC50 [1] [µM]	Compound	IC50 [2] [µM]	in vivo bioactivities as a DPP-IV inhibitor [3]
36.5 ± 0.78	CC1OC(OCC2OC(Oc3c(-c4ccc(O)cc4)oc4cc(OC5OC(C)C(O)C(O)C5O)cc(O)c4c3=O)C(OC3OC(CO)C(O)C(O)C3O)C(O)C2O)C(O)C(O)C1O (stereo not drawn) [Compound 2, kaempferol-3-O-β-gulcopyranosyl-(1→2)-[α-rhamnopyranosyl(1→6)]-β-galactopyranosyl-7-O-α-rhamnopyranoside]		
37 ± 1.4	CC1OC(OCC2OC(Oc3c(-c4ccc(O)cc4)oc4cc(OC5OC(C)C(O)C(O)C5O)cc(O)c4c3=O)C(O)C(O)C2O)C(O)C(O)C1O (stereo not drawn) [Compound 3, kaempferol-3-O-α-rhamnosyl(1→6)-O-β-galactopyranoside-7-O-α-rhamnopyranoside]		
51.7 ± 4.83	O=c1c(O)c(-c2ccc(O)cc2)oc2cc(O)cc(O)c12 [Compound 4, kaempferol]	0.49 ± 0.02	
27.9 ± 1.29	CC1OC(Oc2cc(O)c3c(=O)c(OC4OC(CO)C(O)C(O)C4OC4OC(CO)C(O)C(O)C4O)c(-c4ccc(O)cc4)oc3c2)C(O)C(O)C1O (stereo not drawn) [Compound 1, kaempferol-3-O-β-gulcopyranosyl-(1→2)-β-galactopyranosyl-7-O-α-rhamnopyranoside]		
	C[C@@H]1O[C@@H](O[C@H]2[C@H](Oc3cc(O)c4c(c3)O[C@H](c3ccc(O)cc3)CC4=O)O[C@H](CO)[C@@H](O)[C@@H]2O)[C@H](O)[C@H](O)[C@H]1O [naringin]		strong in vivo bioactivities
	O=c1c(O[C@@H]2O[C@H](CO)[C@@H](O)[C@H](O)[C@H]2O)c(-c2ccc(O)c(O)c2)oc2cc(O)cc(O)c12 [isoquercitrin]		strong in vivo bioactivities
